This note sets out measurements from patent US10765729B2, “Tumor antigen peptide” (Sapporo Medical University, priority 2014, dated 2020).

Several values for one entry are separate records, joined by “and”; a condition that tells them apart may be missing. Equal entries are not always repeated. Where no end group is shown, it is not given here.

The target of one series is T1, HLA-A*02:01 (Homo sapiens, UniProt P04439, D140Y/D185E/D98H/E176V/E277Q/G131W/G231S/I119V/I121R/I166T/I218V/L300P/L318F/N151K/N90K/P208A/P217A/Q86G/Q94H/R138H/R169H/T345S).
T1 construct: T2 cells can usually only express a low level of empty MHC class I molecules on the cell surface; endogenous in cells; host or cells: T2-A24 cells (human lymphoblastoid T2 cells)
It counts as binding.

Another series has as its target HLA-A*24:02 (Homo sapiens, UniProt P04439, D101N/D140Y/D185E/E176V/E190D/F33S/G103R/G107R/I119L/I121M/I306V/K335N/L105A/L180Q/L300P/N151K/N90K/Q86E/Q94H/R106L/R138H/R89G/T104I/T345S/V100E/W191G/Y123F). It counts as binding.
In series [1] the test system is human colon cancer cell line (SW480). Kind of series: Detection of SP fraction by Hoechst 33342/PI flow cytometry. The format is cell-based. As to conditions: verapamil final concentration 75 μM; Hoechst 33342 5.0 μM; FIG. 1. Here is the method: 5% fetal calf serum (FCS (HyClone Laboratories))-supplemented DMEM (Sigma-Aldrich) medium was prepared as a medium and warmed at 37° C. Verapamil (Sigma-Aldrich) was adjusted to 50 mM and diluted to 5 mM using the 5% FCS-supplemented DMEM medium. Hoechst 33342 (Lonza) was adjusted to 250 μg/mL using the 5% FCS-supplemented DMEM medium. DNase I (Qiagen) was adjusted to 1 mg/mL using DDW and sterilized by filtration using a 0.2 μm filter.
A human colon cancer cell line (SW480 (ATCC)) was suspended in 4 mL of the 5% FCS-supplemented DMEM medium, and the number of cells was counted. Furthermore, the 5% FCS-supplemented DMEM medium was added so as to adjust the cell concentration to 10×10^6 cells/mL, thus giving a sample. Using part of the sample, dispensing was carried out; verapamil was not added to a main sample (verapamil(−) sample), and verapamil was added to a secondary sample so as to give a final concentration of 75 μM (verapamil(+) sample). Subsequently, the Hoechst 33342 solution was added to the verapamil(+) sample and the verapamil(−) sample so as to give a Hoechst 33342 final concentration of 5.0 μM. […]
First, cells in the verapamil(−) sample were analyzed, and cells in a cell group (side population (SP)) having low emission intensity compared with a main cell group (main population (MP)) were detected (FIG. 1).

Series [2] relates to peripheral blood mononuclear cells derived from HLA-A*02:01-positive healthy individuals. Kind of series: CTL inducibility using human peripheral blood mononuclear cells, IFNγ ELISPOT. It counts as cell-based. As to conditions: peptide 20 μg/mL, IL-2 100 U/mL, about 2 weeks, FIGS. 39-43. The method, then: (§1) Subsequently, approximately 1×10^5 cells were plated in each well of a 96-well U bottom plate, and cultured at 37° C. under 5% CO2. At this time, human IL-2 and peptide were added at 100 U/mL and 20 μg/mL, respectively. The medium was exchanged every 3 or 4 days and an IFNγ ELISPOT assay was carried out after about 2 weeks. On the day before the assay, ELISPOT plates were treated with anti-IFNγ antibody, and on the day of assay, they were blocked with RPMI1640 medium containing 10% fetal calf serum at room temperature for about 2 hours. The human peripheral blood mononuclear cells in the culture were washed with an AIM-V medium containing 10% human-derived serum and plated in each well of the blocked ELISPOT plate. After culturing at 37° C. under 5% CO2 for 16 to 18 hours, the supernatant was removed and the ELISPOT plates were subjected to color development according to the attached protocol. The number of colored spots was measured with an ELISPOT analyzer manufactured by Cellular Technology Limited. […] In addition, black bars indicate the number of spots detected under peptide stimulation conditions, and white bars indicate the number of spots (controls) detected under no peptide pulse conditions.

For series [3], the system named is peripheral blood mononuclear cells derived from HLA-A*24:02-positive healthy individuals. The description is as above. It counts as cell-based. As to conditions: peptide 20 μg/mL, IL-2 100 U/mL, about 2 weeks, FIGS. 44, 45. Here is the method: as §1
The subject of a further series is T2-A24 cells. Kind of series: Cytotoxicity test (LDH release) of CTLs toward peptide-pulsed T2-A24 cells. The format is cell-based, human. As to conditions: peptide pulse 20 μg/mL; E/T ratio 1, 3, 9; CTL induced by IV9; FIG. 10. Here is the method: (§2) T2-A24 cells, SW480-SP, SW480-MP, and K562 HLA-class I-deficient leukemia cells (obtained from ATCC) were suspended in 10% FBS-supplemented RPMI at a cell concentration of 1×10^6 cells/mL. Washing was carried out three times with 10 mL of 10% FBS-supplemented RPMI.
(§3) T2-A24 cells were pulsed with IV9 peptide and HIV584-594 peptide as a positive control for T2-A24 cell binding, at a concentration of 20 μg/mL at room temperature for 1 hour. As a negative control, a group without peptide pulses was used. With regard to experimental group of T2-A24 cells, three groups were defined: [1] no peptide pulse, [2] HIV584-594 peptide pulse, and [3] IV9 peptide pulse. In addition, K562 was pulsed with IV9 peptide under the same conditions. Both SW480-SP and SW480-MP groups were used without peptide pulses. After the peptide pulse, the cells were washed twice with PBS. The cells of each group were plated on each well at 1×10^5 cells/100 μL.
(§4) Respective numbers of effector cells (CTLs) were plated on each well so that the effector/target ratio (E/T ratio) became 1, 3, and 9. Effector cells were plated as a spontaneous release well. To the maximum release well, 4% of NP-40-added PBS was added to the target cells so that the final concentration became 2%. […] After 10 minutes, fluorescence intensity of each well was measured by Terra Scan. Cytotoxic activity was calculated using the equation below. […]
In general terms: LDH in the medium is a marker of cell lysis.

A further series has as its system SW480-MP. Kind of series: Cytotoxicity test (LDH release) of CTLs toward SW480-MP without peptide pulse. The format is cell-based, human. As to conditions: CTL induced by IV9, FIG. 10. The method, then: as §2, §3, §4

Take 28 (RIYPPQFHKV) [compound 28]: in the series with HLA-A*02:01, the “MFI HLA-A02” value was 1.4. On to “RGYVYQGL [HLA-A*24:02 Negative control, reference compound]”, for which, at HLA-A*24:02, the “HLA-A*24:02 Negative control (MFI)” value amounted to 1.0.

On to “RYLRDQQLL [HLA-A*24:02 Positive control, HIV584-592 peptide as an HLA-A24-positive control, reference compound]”, for which, in the series with HLA-A*24:02, the “HLA-A*24:02 Positive control (MFI)” value is 2.6 and 3.3 and 2.8. Consider 17 (SILCAKQLV) [compound 17], for which the “MFI HLA-A24” value with HLA-A*24:02 is on record as 1.3.

Take 20 (HVLMHMMLEA) [compound 20]: the “MFI HLA-A24” value with HLA-A*24:02 is listed as 1.3.

Turning to `COc1ccc(CCN(C)CCCC(C#N)(c2ccc(OC)c(OC)c2)C(C)C)cc1OC` (centres unmarked) [verapamil, Verapamil], in series [1], the “SP cells in flow cytometry” value is recorded as “SP cells disappeared”. Regarding 23 (YLLLEPEGII) [compound 23], the “MFI HLA-A24” value with HLA-A*24:02 was 1.4. Take 6 (KILCDRGAKL) [compound 6]: the “induction of peptide-specific CTLs from PBMC” value (from here on “induction”) in series [2] is reported as “able to induce peptide-specific CTLs”. As to 5 (SVLFGHVECL) [compound 5], the “induction” value in series [3] is “has CTL inducibility in both HLA-A02 type and HLA-A24 type subjects”; in series [2], “able to induce peptide-specific CTLs”.

Take 8 (HFGLSELVAFYV) [compound 8]: the “induction” value in series [3] was “has CTL inducibility in both HLA-A02 type and HLA-A24 type subjects”; in series [2] it was “able to induce peptide-specific CTLs”. As to 9 (CYSLSGHTAL) [compound 9], the “induction” value in series [2] is given as “able to induce peptide-specific CTLs”. For the compound 40 (QYVLKVTSV) [compound 40], in the series with HLA-A*24:02, the “MFI HLA-A24” value is on record as 1.3. For 34 (FEVEDENMVL) [compound 34], the “MFI HLA-A24” value in the series with HLA-A*24:02 is 1.4.

In the case of 4 (HLSVLFGHV) [compound 4], the “induction” value in series [2] is “able to induce peptide-specific CTLs”. As for 41 (LLLNHGAARI) [compound 41], the “MFI HLA-A02” value in the series with HLA-A*02:01 was 1.3. Take “EADPTGHSY [HLA-A*02:01 Negative control, MAGE-1161-169 peptide as an HLA-A02-negative control, reference compound]”: the “HLA-A*02:01 Negative control (MFI)” value in the series with HLA-A*02:01 came out at 1.0. Turning to IYPPQFHKV [SEQ ID No. 3], in the series on T2-A24 cells, the “cytotoxic activity of CTLs toward peptide-pulsed T2-A24 cells” value is “high cytotoxic activity”. For the same compound, the “cytotoxic activity of CTLs toward SW480-MP” value in the series on SW480-MP was “only a similar cytotoxic activity as [1] no peptide pulse group and [2] HIV peptide pulse group”.
